Patent US10610564B2, “IRGM and precision autophagy controls for antimicrobial and inflammatory disease states and methods of detection of autophagy” (STC.UNM, priority 2015, dated 2020)

Legend:
[1] = test system: AMPK; conditions: statement in figure legend; compound C used at 20, 40, 80, 160 μM; cited from earlier work
[2] = test system: NLRP3; assay: NLRP3 levels by immunoblot in THP-1 cells; assay type: cell-based, human; conditions: THP-1 cells treated with IFN-γ and LPS, with or without bafilomycin A1
Procedure: (A) Levels of NLRP3 were determine in lysates from THP-1 cells subjected to TRIM20 or Scr siRNA were activated with 1,000 U/mL IFN-γ for 3 h, and 2.5 μg/mL LPS for 2 h (for optimal TRIM20 expression; Supplementary FIG. 24B). RI, relative intensity. (B) Levels of NLRP3 were determined from THP-1 subjected to TRIM20 or control knockdown and treated or not with bafilomycin A1 (Baf A1). (C) The abundance of NLRP3 protein was determined from THP-1 cells subjected to TRIM20 or control knockdown and exposed to Escherichia coli strain LF82 and IFN-γ in the presence or absence of bafilomycin. (D) The abundance of NLRP3 protein was determined from primary human MDMs subjected to TRIM20 or control knockdown and exposed to LPS and IFN-γ in the presence or absence of bafilomycin. (E) Levels of NLRP3 were determined from THP-1 cells subjected to ULK1, Beclin 1, or Scr siRNA were treated with IFN-γ and LPS. (F-H) Levels of NLRP3 (F), NLRP1 (G), or pro-capsase 1 (H) were determined in cells expressing GFP or GFP-TRIM20 following autophagy induction (EBSS, 3 h) in the presence or absence of bafilomycin A1. […]
(A) Co-immunoprecipitation analysis of deletion variants of TRIM20 (as GFP fusions; asterisks denote fusion products on the bottom blot) with NLRP3 in HEK293 cells. […] (E) THP-1 cells were treated with 1.0 μg/ml of LPS for 3 h, and levels of NLRP3 in lysate were determined by immunoblots. […]

[3] = test system: NOD2; assay: Western blot of NOD2 levels in HEK293T cells co-expressing GFP-IRGM and Flag-NOD2; assay type: cell-based; conditions: Bafilomycin A1 100 nM for 8 h
Procedure: (A) Effects of IRGM expression on NOD2 levels in transfected HEK293T cells. Data, means±SE; *, p<0.05 (Student's unpaired t test). (B) Lysates of HEK293T cell co-expressing GFP or GFP-IRGM and Flag-NOD2, untreated/treated with Bafilomycin A1 (100 nM for 8 h) were subjected to Western blotting. (C) Lysates of cells co-expressing Flag-NOD2 and GFP, GFP-IRGM, or GFP-IRGM-K^mut were subjected to Western blotting. (D, E) Lysates from HEK293T cells co-expressing Myc-ULK1 and either GFP or increasing amounts of GFP-IRGM were subjected to Western blotting as in (D) with the relative abundance of Myc-ULK1 shown in (E). Blot was processed (dashed vertical line) to remove irrelevant lanes. (F) HEK293T cells transfected with plasmids encoding GFP, GFP-IRGM, or GFP-IRGM-K^mut and either Myc-ULK1 or Flag-Beclin 1 were lysed and subjected to Western blotting. Data from densitometric analyses of Western blots (B, C, E), means±SE, n=3*, p<0.05 (ANOVA). (G) Depiction of the role of IRGM ubiquitination in NOD2 degradation and ULK1 stabilization. See also FIG. 13.

[4] = test system: dimerized IRF3; assay: IRF3 dimerization assay (native PAGE) in THP-1 cells; assay type: cell-based, human; conditions: HT-DNA and IFN-γ, with bafilomycin
Excerpt: (A) Confocal microscopy of HeLa cells co-expressing mCherry-TRIM21, Flag-IRF3, and GFP-LC3B in the presence of bafilomycin A1. White outline, cell boundary. Arrows indicate the colocalization. (B) Confocal microscopy of HEK293 cells co-expressing mCherry-TRIM21, Flag-IRF3, and GFP-ULK1. (C) Co-immunoprecipitation analysis of IRF3-ULK1 complexes in the presence and absence of TRIM21. Lysates from HEK293 cells transiently expressing Myc-ULK1, Flag-IRF3, and either […] or GFP were immunoprecipitated with anti-Myc, and immunoblots were probed as indicated. (D) Levels of dimerized IRF3 were assessed by native PAGE from THP-1 cells subjected to TRIM21 or control knockdown, and stimulated for 12 h by herring testis DNA (HT-DNA) transfected into the cells in the presence of 200 U/mL IFN-γ. […]
Detection of IRF3 dimerization was performed by native polyacrylamide gel electrophoresis (PAGE) as previously described (Takahasi et al., 2003). Quantitative RT-PCR was performed as previously described (Kimura et al., 2013) using the following primer sets: ULK1, ([…], […]); BECN1, ([…], […]); ACTIN, ([…], […]); TRIM1, ([…], […]); TRIM5, ([…], […]); TRIM8, ([…], […]); TRIM16, ([…], […]); TRIM20, ([…], […]); TRIM21, ([…], […]); TRIM22, ([…], […]); TRIM28, ([…], […]); TRIM56, ([…], […]); and TRIM65, ([…], […]). […]

[5] = test system: NLRP3, NLRP1, pro-caspase 1, TRIM20; assay: Levels of inflammasome components and GFP-TRIM20 in cells expressing GFP-TRIM20 after autophagy induction (EBSS); assay type: cell-based; conditions: EBSS 3 h, with bafilomycin A1
Procedure: (A) Levels of NLRP3 were determine in lysates from THP-1 cells subjected to TRIM20 or Scr siRNA were activated with 1,000 U/mL IFN-γ for 3 h, and 2.5 μg/mL LPS for 2 h (for optimal TRIM20 expression; Supplementary FIG. 24B). RI, relative intensity. (B) Levels of NLRP3 were determined from THP-1 subjected to TRIM20 or control knockdown and treated or not with bafilomycin A1 (Baf A1). (C) The abundance of NLRP3 protein was determined from THP-1 cells subjected to TRIM20 or control knockdown and exposed to Escherichia coli strain LF82 and IFN-γ in the presence or absence of bafilomycin. (D) The abundance of NLRP3 protein was determined from primary human MDMs subjected to TRIM20 or control knockdown and exposed to LPS and IFN-γ in the presence or absence of bafilomycin. (E) Levels of NLRP3 were determined from THP-1 cells subjected to ULK1, Beclin 1, or Scr siRNA were treated with IFN-γ and LPS. (F-H) Levels of NLRP3 (F), NLRP1 (G), or pro-capsase 1 (H) were determined in cells expressing GFP or GFP-TRIM20 following autophagy induction (EBSS, 3 h) in the presence or absence of bafilomycin A1. Data, means±SE, n≥3, *P<0.05, ^†P≥0.05 (ANOVA).
(A) Co-immunoprecipitation analysis of deletion variants of TRIM20 (as GFP fusions; asterisks denote fusion products on the bottom blot) with NLRP3 in HEK293 cells. (B) THP-1 cells were treated with IFN-γ for 3 h, additionally treated with 2.5 μg/ml of LPS for indicated periods, and TRIM20 mRNA levels were determined by quantitative PCR. […] (C and D) Levels of NLRP3 were determined in lysates from THP-1 cells subjected to TRIM20 or Scr siRNA were (C) untreated either IFN-γ or LPS, or (D) LPS alone for 2 h. (E) THP-1 cells were treated with 1.0 μg/ml of LPS for 3 h, and levels of NLRP3 in lysate were determined by immunoblots. (F) Knockdown efficacies of ULK1 and Beclin 1 by siRNA were examined by quantitative RT-PCR. (G and H) Levels of GFP-TRIM20 were determined in cells co-expressing (G) with or (H) without NLRP3 following autophagy induction (EBSS, 3 h) in the presence or absence of bafilomycin A1. […]

Row | Structure (SMILES) | AMPK inhibition [1] | NLRP3 degradation [2] | IRGM-promoted NOD2 degradation [3] | dimerized IRF3 degradation [4] | TRIM20 degradation in the presence of NLRP3 ([5]; GFP-TRIM20 co-expressed with NLRP3) | degradation of pro-caspase 1 and NLRP1 co-expressed with TRIM20 ([5]; cells expressing GFP-TRIM20) | destabilizing effect of TRIM20 overexpression on NLRP3 levels ([5]; cells expressing GFP-TRIM20)
1 | c1cc(-c2cnn3cc(-c4ccc(OCCN5CCCCC5)cc4)cnc23)ccn1 [Compound C] | potent inhibitor of AMPK | – | – | – | – | – | –
2 | CO/C1=C\C(C)=C\[C@@H](C)[C@@H](O)[C@@H](C)C/C(C)=C/C=C/[C@H](OC)[C@@H]([C@@H](C)[C@@H](O)[C@H](C)[C@@]2(O)C[C@@H](O)[C@H](C)[C@@H](C(C)C)O2)OC1=O [bafilomycin A1] | – | protected NLRP3 | partially blocked | protected dimerized IRF3 from degradation | protected | inhabitable | suppressed
